*1 amine or outer side, *2 acyl side, *3 side chain or, on linkers, in order; H or OH if unused. Where a SMILES comes first, the peptide text is derived from it. Side-chain parts run from the residue outwards. [ ]: non-standard residue; d: D form. The star is where a group is joined. C20 diacid = O=C(O)CCCCCCCCCCCCCCCCCCC(=O)*; γGlu = O=C(O)[C@H](CCC(=O)[*:2])N[*:1]; Decanoyl = CCCCCCCCCC(=O)*; Pentanoyl = CCCCC(=O)*; Aib = CC(C)(N)C(=O)O
T1: human CRF2a receptor (Homo sapiens, UniProt Q13324)
T1 construct: expressed in transfected cells; host or cells: TeloHEAC cells
T1 sequence (Q13324 1-411): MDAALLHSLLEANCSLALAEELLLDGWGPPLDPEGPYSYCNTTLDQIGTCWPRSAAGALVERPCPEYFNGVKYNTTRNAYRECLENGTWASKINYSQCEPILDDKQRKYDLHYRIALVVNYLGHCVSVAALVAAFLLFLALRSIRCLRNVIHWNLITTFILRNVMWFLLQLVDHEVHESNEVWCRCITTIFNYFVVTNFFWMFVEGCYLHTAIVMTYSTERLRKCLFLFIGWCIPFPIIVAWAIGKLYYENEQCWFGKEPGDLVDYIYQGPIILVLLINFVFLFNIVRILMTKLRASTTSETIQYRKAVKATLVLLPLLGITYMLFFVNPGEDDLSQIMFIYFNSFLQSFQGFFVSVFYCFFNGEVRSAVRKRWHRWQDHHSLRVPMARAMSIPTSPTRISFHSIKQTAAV

T2: CFR1R receptor (Homo sapiens, UniProt P34998)
T2 construct: host or cells: CHO-K1 (clone 2)
T2 sequence (P34998 24-415): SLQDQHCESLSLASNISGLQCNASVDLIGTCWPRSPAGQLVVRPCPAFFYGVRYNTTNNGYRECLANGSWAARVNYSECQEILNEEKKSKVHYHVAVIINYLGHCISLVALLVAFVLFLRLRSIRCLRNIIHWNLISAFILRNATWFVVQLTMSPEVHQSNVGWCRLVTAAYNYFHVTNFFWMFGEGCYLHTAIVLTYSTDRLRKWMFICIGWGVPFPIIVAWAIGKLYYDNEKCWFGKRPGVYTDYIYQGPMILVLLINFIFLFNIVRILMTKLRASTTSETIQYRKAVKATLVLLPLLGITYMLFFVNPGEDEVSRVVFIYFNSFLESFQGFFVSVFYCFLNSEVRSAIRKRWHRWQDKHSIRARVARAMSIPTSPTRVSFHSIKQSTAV

T3: CRF1R (corticotropin-releasing factor receptor 1), on the CRF1R-overexpression CHO-K1 cell line clone 2 (UniProt P34998 24-415, limits assumed)
T3 sequence (looked up): T2 sequence (P34998 24-415)

B1: peptide of SEQ ID NO: 228 (peptide)
peptide: Pentanoyl-VLSLD[dV]PIGLK([γGlu-C20 diacid])KILLEQEKQKKQREQAETN[Aib]QILAQV-NH2
SMILES: CCCCC(=O)N[C@H](C(=O)N[C@@H](CC(C)C)C(=O)N[C@@H](CO)C(=O)N[C@@H](CC(C)C)C(=O)N[C@@H](CC(=O)O)C(=O)N[C@@H](C(=O)N1CCC[C@H]1C(=O)N[C@H](C(=O)NCC(=O)N[C@@H](CC(C)C)C(=O)N[C@@H](CCCCNC(=O)CC[C@H](NC(=O)CCCCCCCCCCCCCCCCCCC(=O)O)C(=O)O)C(=O)N[C@@H](CCCCN)C(=O)N[C@H](C(=O)N[C@@H](CC(C)C)C(=O)N[C@@H](CC(C)C)C(=O)N[C@@H](CCC(=O)O)C(=O)N[C@@H](CCC(N)=O)C(=O)N[C@@H](CCC(=O)O)C(=O)N[C@@H](CCCCN)C(=O)N[C@@H](CCC(N)=O)C(=O)N[C@@H](CCCCN)C(=O)N[C@@H](CCCCN)C(=O)N[C@@H](CCC(N)=O)C(=O)N[C@@H](CCCNC(=N)N)C(=O)N[C@@H](CCC(=O)O)C(=O)N[C@@H](CCC(N)=O)C(=O)N[C@@H](C)C(=O)N[C@@H](CCC(=O)O)C(=O)N[C@H](C(=O)N[C@@H](CC(N)=O)C(=O)NC(C)(C)C(=O)N[C@@H](CCC(N)=O)C(=O)N[C@H](C(=O)N[C@@H](CC(C)C)C(=O)N[C@@H](C)C(=O)N[C@@H](CCC(N)=O)C(=O)N[C@H](C(N)=O)C(C)C)[C@@H](C)CC)[C@@H](C)O)[C@@H](C)CC)[C@@H](C)CC)C(C)C)C(C)C

Assays:
[1] = Pharmacokinetics in male Sprague Dawley rats after subcutaneous administration; assay type: in vivo; conditions: plasma, rat
[2] = In vitro subcutaneous tissue supernatant (SCts) stability and metabolite identification, rat; assay type: in vitro ADME; parameters: remaining at 2 h: dose or concentration left out as unconfirmed; conditions: male, Sprague Dawley; rat subcutaneous tissue supernatant (SCts), 37° C, 2 h
[3] = Chemical stability in buffer (pH 7.4 / pH 4.5), % purity loss; assay type: physicochemical; conditions: 100 mM phosphate buffer pH 7.4; 40° C. vs 5° C.; 14 or 28 days
Summary of the method: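 Compounds dissolved at 10 mg/mL target in 100 mM phosphate (pH 7.4) or 100 mM acetate (pH 4.5) buffer for 1 h at room temperature, then centrifuged. Diluted supernatant stored at 5 °C or 40 °C for 14 or 28 days; % purity loss by LC-UV.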

human CRF2a receptor = target: T1, human CRF2a receptor; assay: Activity at human CRF2a receptor, cAMP functional assay in TeloHEAC cells; assay type: cell-based; conditions: TeloHEAC cells stably expressing human CRF2a receptor, relative to urocortin 2 (100 nM = 100%)
Summary of the method: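 cAMP accumulation was measured by HTRF 665/620 nm ratio after 30 min at 37° C compound exposure (16 twofold dilutions) of CRF2a-expressing TeloHEAC cells, 10000/well, in HEPES-buffered HBSS plus IBMX. Activity was normalised to urocortin 2 at 100 nM (100%), and EC50 was the concentration giving half-maximal activation.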

CFR1R receptor = target: T2, CFR1R receptor; assay: Activity at anti-target CFR1R receptor, cAMP assay in CRF1R-overexpression CHO-K1 cells; assay type: cell-based; conditions: 100% = Sauvagine at 100 nM
Summary of the method: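 cAMP readout in CRF1R-overexpressing CHO-K1 cells (clone 2), run as for the TeloHAEC assay at 4000 cells/well final. Cells came from cryopreserved banks. Sauvagine at 100 nM defined 100% activation.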

[4] = Pharmacokinetics in male Sprague Dawley rats after subcutaneous administration; assay type: in vivo; conditions: plasma, rat, SC
Sprague Dawley rats = assay: Effect on systolic blood pressure, telemetry in Sprague Dawley rats; assay type: in vivo, rat; conditions: 0.1 mg/kg SC
Summary of the method: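 Sprague Dawley rats with abdominal-aorta telemetry catheters, recovered ≥10 days, received 0.1 mg/kg SC of compound or vehicle. Systolic pressure recorded 1 h pre-dose as baseline, then continuously up to 48 hours, expressed as % change from baseline; duration of action is last time point with a BP effect (n=2).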

[5] = target: T3, CRF1R (corticotropin-releasing factor …); assay: cell-based or functional assay

| Molecule | AUC(0-t) ([1]; IV, 0.025 mg/kg) [ng·h/mL] | half-life ([1]; IV, 0.025 mg/kg) [h] | remaining at 2 h [2] [%] | Buffer stability pH 7.4 % purity loss [3] | EC50 (human CRF2a receptor) [nM] | Emax (% I) (CFR1R receptor) | AUC(0-t) ([4]; 0.05 mg/kg) [ng·h/mL] | Cmax ([4]; 0.05 mg/kg) [ng/mL] | Tmax ([4]; 0.05 mg/kg) [h] | half-life ([4]; 0.05 mg/kg) [h] | further results |
| --- | --- | --- | --- | --- | --- | --- | --- | --- | --- | --- | --- |
| CCCCC(=O)N[C@H](C(=O)N[C@@H](CC(C)C)C(=O)N[C@@H](CO)C(=O)N[C@@H](CC(C)C)C(=O)N[C@@H](CC(=O)O)C(=O)N[C@@H](C(=O)N1CCC[C@H]1C(=O)N[C@H](C(=O)N[C@@H](CCCCN)C(=O)N[C@@H](CC(C)C)C(=O)N[C@@H](CCCCNC(=O)CC[C@H](NC(=O)CCCCCCCCCCCCCCCCCCC(=O)O)C(=O)O)C(=O)N[C@@H](CCCCN)C(=O)N[C@H](C(=O)N[C@@H](CC(C)C)C(=O)N[C@@H](CC(C)C)C(=O)N[C@@H](CCC(=O)O)C(=O)N[C@@H](CCC(N)=O)C(=O)N[C@@H](CCC(=O)O)C(=O)N[C@@H](CCCCN)C(=O)N[C@@H](CCC(N)=O)C(=O)N[C@@H](CCCCN)C(=O)N[C@@H](C)C(=O)N[C@@H](CCC(N)=O)C(=O)N[C@@H](CCCNC(=N)N)C(=O)N[C@@H](CCC(=O)O)C(=O)N[C@@H](CCC(N)=O)C(=O)N[C@@H](C)C(=O)N[C@@H](CCC(=O)O)C(=O)N[C@H](C(=O)N[C@@H](CC(N)=O)C(=O)NC(C)(C)C(=O)N[C@@H](CCC(N)=O)C(=O)N[C@H](C(=O)N[C@@H](CC(C)C)C(=O)N[C@@H](C)C(=O)N[C@@H](CCC(N)=O)C(=O)N[C@H](C(N)=O)C(C)C)[C@@H](C)CC)[C@@H](C)O)[C@@H](C)CC)[C@@H](C)CC)C(C)C)C(C)C [compound 222] (Pentanoyl-VLSLD[dV]PIKLK([γGlu-C20 diacid])KILLEQEKQKAQREQAETN[Aib]QILAQV-NH2) | 3320 | 7 | 62 | 0.0/Not Tested % | 0.14 | 50 | 2890 | 113 | 8 | 12 | – |
| CCCCCCCCCC(=O)N[C@H](C(=O)N[C@@H](CC(C)C)C(=O)N[C@@H](CO)C(=O)N[C@@H](CC(C)C)C(=O)N[C@@H](CC(=O)O)C(=O)N[C@@H](C(=O)N1CCC[C@H]1C(=O)N[C@H](C(=O)N[C@@H](CCCCN)C(=O)N[C@@H](CC(C)C)C(=O)N[C@@H](CCCCNC(=O)CC[C@H](NC(=O)CCCCCCCCCCCCCCCCCCC(=O)O)C(=O)O)C(=O)N[C@@H](CCCCN)C(=O)N[C@H](C(=O)N[C@@H](CC(C)C)C(=O)N[C@@H](CC(C)C)C(=O)N[C@@H](CCC(=O)O)C(=O)N[C@@H](CCC(N)=O)C(=O)N[C@@H](CCC(=O)O)C(=O)N[C@@H](CCCCN)C(=O)N[C@@H](CCC(N)=O)C(=O)N[C@@H](CCCCN)C(=O)N[C@@H](CCCCN)C(=O)N[C@@H](CCC(N)=O)C(=O)N[C@@H](CCCNC(=N)N)C(=O)N[C@@H](CCC(=O)O)C(=O)N[C@@H](CCC(N)=O)C(=O)N[C@@H](C)C(=O)N[C@@H](CCC(=O)O)C(=O)N[C@H](C(=O)N[C@@H](CC(N)=O)C(=O)NC(C)(C)C(=O)N[C@@H](CCC(N)=O)C(=O)N[C@H](C(=O)N[C@@H](CC(C)C)C(=O)N[C@@H](C)C(=O)N[C@@H](CCC(N)=O)C(=O)N[C@H](C(N)=O)C(C)C)[C@@H](C)CC)[C@@H](C)O)[C@@H](C)CC)[C@@H](C)CC)C(C)C)C(C)C [compound 223] (Decanoyl-VLSLD[dV]PIKLK([γGlu-C20 diacid])KILLEQEKQKKQREQAETN[Aib]QILAQV-NH2) | 1920 | 2.8 | 79 | −0.1/Not Tested % | 0.08 | 58 | 698 | 67 | 2 | 6.5 | – |
| CCCCC(=O)N[C@H](C(=O)N[C@@H](CC(C)C)C(=O)N[C@@H](CO)C(=O)N[C@@H](CC(C)C)C(=O)N[C@@H](CC(=O)O)C(=O)N[C@@H](C(=O)N1CCC[C@H]1C(=O)N[C@H](C(=O)N[C@@H](CCCCN)C(=O)N[C@@H](CC(C)C)C(=O)N[C@@H](CCCCNC(=O)CC[C@H](NC(=O)CCCCCCCCCCCCCCCCCCC(=O)O)C(=O)O)C(=O)N[C@@H](CCCCN)C(=O)N[C@H](C(=O)N[C@@H](CC(C)C)C(=O)N[C@@H](CC(C)C)C(=O)N[C@@H](CCC(=O)O)C(=O)N[C@@H](CCC(N)=O)C(=O)N[C@@H](CCC(=O)O)C(=O)N[C@@H](CCCCN)C(=O)N[C@@H](CCC(N)=O)C(=O)N[C@@H](CCCCN)C(=O)N[C@@H](CCCCN)C(=O)N[C@@H](CCC(N)=O)C(=O)N[C@@H](CCCNC(=N)N)C(=O)N[C@@H](CCC(=O)O)C(=O)N[C@@H](CCC(N)=O)C(=O)N[C@@H](C)C(=O)N[C@@H](CCC(=O)O)C(=O)N[C@H](C(=O)N[C@@H](CC(N)=O)C(=O)NC(C)(C)C(=O)N[C@@H](CCC(N)=O)C(=O)N[C@H](C(=O)N[C@@H](CC(C)C)C(=O)N[C@@H](C)C(=O)N[C@@H](CCC(N)=O)C(=O)N[C@H](C(N)=O)C(C)C)[C@@H](C)CC)[C@@H](C)O)[C@@H](C)CC)[C@@H](C)CC)C(C)C)C(C)C [compound 219] (Pentanoyl-VLSLD[dV]PIKLK([γGlu-C20 diacid])KILLEQEKQKKQREQAETN[Aib]QILAQV-NH2) | – | – | 71 | −2.1/Not Tested % | 0.16 | 48 | – | – | – | – | AUC(0-t) ([1]; IV, 0.05 mg/kg): 5320 ng·h/mL; half-life ([1]; IV, 0.05 mg/kg): 6 h; Tmax ([1]; SC, 0.1 mg/kg): 8 h; half-life ([1]; SC, 0.1 mg/kg): 15 h; AUC(0-t) ([4]; 0.1 mg/kg): 4520 ng·h/mL; Cmax ([4]; 0.1 mg/kg): 156 ng/mL; Systolic blood pressure (Mean) % change from baseline, 8 h (Sprague Dawley rats; 8 h, n=2): −10%; Systolic blood pressure (Mean) % change from baseline, 12 h (Sprague Dawley rats; 12 h, n=2): −13%; Systolic blood pressure (Mean) % change from baseline, 24 h (Sprague Dawley rats; 24 h, n=2): −10%; Duration of action (Sprague Dawley rats; last time point with an effect on BP still observed): >24 h |
| B1 | – | – | – | – | – | – | – | – | – | – | EC50 [nM] (cAMP, CRF1R-overexpression CHO-K1 cells) [5]: 90.5 nM; Emax (% I) (cAMP, 100% = Sauvagine at 100 nM) [5]: 62 % I |

Reference: patent publication US20260001928A1 (CORTERIA PHARMACEUTICALS, priority 2022, published 2026)
